Experimental findings from patent US20090181910A1, “METHOD OF PREVENTION AND ALLEVIATION OF TOXICITY BY MODULATION OF IRF3” (priority 2006, published 2009) are described below.

In data set [1] the test system is PXR/RXR ER6 binding region of CYP3A4. The data set is described as follows: ChIP with anti-RXRα antibody at CYP3A4. The data set is classed as cell-based, human. The settings on record: combinatorial treatment with rifampicin 25 μM and polyI:C, 24 hours; FIG. 10g and h. The method, then:
FIG. 10: PolyI:C transcriptional repression of RXRα is critical for repression of nuclear receptor target genes. a, Wildtype, IRF3^−/− and IFNAR^−/− BMMs were stimulated with Control (DMSO), or LG268 (10 nM) with or without polyI:C (1 μg/ml). RNA was analyzed by Q-PCR. b, pCMV-RAW 264.7 cells (MT) or pCMV-Hes1-RAW 264.7 cells (Hes1) were stimulated with Control (DMSO) and 9cRA with or without polyI:C (1 μg/ml) for 24 hrs. RNA was analyzed by Q-PCR. c, RAW264.7 cells transfected with siNS or siHes1 duplex oligos were stimulated with Control (DMSO) and 9cRA (10 μM) with or without polyI:C (1 μg/ml) for 24 hours. RNA was analyzed by Q-PCR. d, pBabe-RAW 264.7 cells (Raw_MT) and pBabe-RXRα-RAW264.7 cells (Raw-RXRα) were stimulated with Control (DMSO) or LG268 (10 nM) with or without polyI:C (1 μg/ml) for 24 hrs. RNA was analyzed by Q-PCR. e, pBabe-Huh7 cells (Huh7 MT) and pBabe-RXRα-Huh7 cells (Huh7-RXRα) were stimulated with Control (DMSO) and rifampicin (25 μM) with or without polyI:C (2 μg/ml, transfected). RNA was analyzed by Q-PCR. f, pBabe-Huh7 cells (Huh7 MT) and pBabe-RXRα-Huh7 cells (Huh7_RXRα) were stimulated with Control (DMSO) and ASA (20 μg/ml) with or without polyI:C (2 μg/ml, transfected). RNA was analyzed by Q-PCR. g,h, BMMs were stimulated with rifampicin (25 μM) and polyI:C (1 μg/ml) for 24 hours. […] PCR products on gel are quantified by ImageJ, normalized to Input. […]

In data set [2] the test system is CYP24. Also noted: species or system mice. The settings on record: mouse, in vivo.
Data set [3] in a line: H&E liver histology in APAP hepatotoxicity. Particulars: for prevention of APAP-induced necrosis: FIG. 3A.
The conditions of data set [4]: mouse, in vivo.
For data set [5], the system named is CRBPII. The data set is described as follows: RAW 264.7 Q-PCR: CRBPII. It counts as cell-based, murine.
Data set [6] concerns RXRα. The data set is described as follows: BMM anti-RXRα Western blot. It counts as cell-based, Murine. The settings on record: polyI:C and LG268 treatment, 24 hrs; FIG. 8e.
Data set [7] has as its system RXRα. The data set is described as follows: RAW264.7 cells with siHes1, Q-PCR: RXRα mRNA. The data set is classed as cell-based, murine. The settings on record: siRNA specific to Hes1, polyI:C 1 μg/ml 8 hours; FIG. 9d.

“polyinosinic:polycytidylic acid [polyI:C]”: the “RXRα present on CYP3A4 promoter (ChIP)” value in data set [1] is recorded as “maximal loss of RXRα in the PXR/RXR ER6 binding region of CYP3A4”. The “effect on induction of CYP24 mRNA by 1,25(OH)2D3” value in data set [2] is on record as “blunted”. Moreover, the “prevention of cell necrosis” value in data set [3] (PCN or ethanol plus lower levels of APAP, FIG. 3B) is listed as “prevents cell necrosis in these treatments as well”. The “prevention of APAP-induced necrosis” value in data set [3] (mice deficient in IRF3, APAP 350 mg/kg) is listed as “only slightly reduced the severity of necrosis”; in data set [3] (wildtype mice, APAP 350 mg/kg), “completely prevented such necrosis”. Further, the liver damage entry in data set [4] was “strongly induced liver damage”. In data set [5], the “9cRA induction of CRBPII” value was “unable to repress 9cRA induction of CRBPII”. Also, the “RXRα protein levels in IRF3^−/− BMMs” value in data set [6] is “significantly higher than in WT or IFNAR^−/− BMMs”. In addition, the “polyI:C-mediated repression of RXRα with Hes1 knockdown” value in data set [7] was “requirement of Hes1 in polyI:C-mediated repression of RXRα”.
